Patent US8647867B2, “Cell cultivation method and cell culture” (National University Corportion Okayama University, priority 2005, dated 2014)

How the values were obtained:
Assay type in all cases: cell-based
porcine pancreatic islet = assay: Insulin production ability of cultured porcine pancreatic islet
Protocol: A process of isolation of porcine pancreatic islet was carried out according to the method for isolation of human pancreatic islet (see, Lakey J R T, Kobayashi N, Shapiro A M J, Ricordi C, Okitsu T: Current human islet isolation protocol. Medical Review Co., Ltd., Osaka, Japan, 2004), and followed a method in a published literature (Yonekawa Y, Matsumono S, Okitsu T, Arata T, Iwanaga Y, Noguchi H, Nagata H, O'Neil J J, Tanaka K: Effective islet isolation method with extremely high islet yields from adult pigs. Cell Transplant. 14(10): 757-62, 2005). Those skilled in the art are capable of isolating pancreatic islet by referring to this literature.
(§1) Insulin production abilities of cultured porcine pancreatic islet were determined and compared between groups A and B. Using low glucose DMEM (glucose concentration: […]) (available from 25 GIBCO, Oakland, N.J.) supplemented with 10% FCS, nicotineamide 10 mM and penicillin G/streptomycin, cells were cultured for 24 hours until 60% confluency (low glucose). Then, the medium was changed for high glucose DMEM (glucose concentration: […]) (available from GIBCO, Oakland, N.J.) supplemented with 10% FCS, nicotineamide 10 mM and penicillin G/streptomycin, and cells were cultured for 6 hours (high glucose). After high glucose culture, the medium was exchanged for low glucose DMEM and cells were cultured for 6 hours (low glucose (after)). After each culture operation, the production amount of insulin in the culture medium (μg/l) was determined by an immunostaining method using a rabbit anti-human insulin antibody (available from DakoCytomation K. K., Kyoto, Japan).

porcine hepatocyte = assay: Viability of porcine hepatocyte (live/dead test); conditions: culture without insert, days 1, 7 and 14 of culture
Text: Therefore, it was clarified that it is more suitable for culture of porcine hepatocyte to use PuraMatrix of SEQ ID NO:1 Since the appended Photographs are converted into white and black two tones, dyed colors are not expressed.

human pancreatic islet = assay: Insulin production ability of cultured human pancreatic islet
Protocol: Healthy isolated human pancreatic islets provided from Alberta University in Canada (those skilled in the art can obtain them from Canada, Alberta University, human pancreatic islet transplantation program, Dr. Jonathan R T. Lakey) were seeded in a T25 10 culture flask.
as §1, with “human” for “porcine”, “from” for “from 25”, “respective” for “each”, “operations,” for “operation,”

human hepatocyte = assay: Metabolic ability of ammonia in cultured human hepatocyte; conditions: culture without insert; for ammonia metabolic rate: ammonium sulfate 0.56 mM, after 24 hours
Text: Donor liver judged to be unsuitable for transplantation in the United States was obtained from National Disease Research Interchange via HUMAN & ANIMAL BRIDGING […] ORGANIZATION laboratory (Ichikawa city, Chiba prefecture, responsible person) in the form of liver block (130 g) which was then separated into hepatocyte in the same manner as for the above-described isolation of porcine hepatocyte in Example 1.

In the case of CC(=O)N[C@@H](CCCNC(=N)N)C(=O)N[C@@H](C)C(=O)N[C@@H](CC(=O)O)C(=O)N[C@@H](C)C(=O)N[C@@H](CCCNC(=N)N)C(=O)N[C@@H](C)C(=O)N[C@@H](CC(=O)O)C(=O)N[C@@H](C)C(=O)N[C@@H](CCCNC(=N)N)C(=O)N[C@@H](C)C(=O)N[C@@H](CC(=O)O)C(=O)N[C@@H](C)C(=O)N[C@@H](CCCNC(=N)N)C(=O)N[C@@H](C)C(=O)N[C@@H](CC(=O)O)C(=O)N[C@@H](C)C(N)=O [Group A, Ac-(RADA)4-CONH2], the “production amount of insulin in the culture medium” value (shortened to “production amount of insulin”) (porcine pancreatic islet; porcine islets (10 seeded), day 0 of culture, low glucose (100 g/l, 24 hours)) is reported as 0.80 µg/L, the “production amount of insulin” value (porcine pancreatic islet; porcine islets, day 0 of culture, high glucose (450 g/l, 6 hours)) is reported as 1.62 µg/L and the “production amount of insulin” value (porcine pancreatic islet; porcine islets, day 0 of culture, low glucose (after), 6 hours) is reported as 1.01 µg/L. The “production amount of insulin” value (porcine pancreatic islet; porcine islets, day 3 of culture, high glucose (450 g/l, 6 hours)) was 1.48 µg/L, the “production amount of insulin” value (porcine pancreatic islet; porcine islets, day 3 of culture, low glucose (100 g/l, 24 hours)) was 0.80 µg/L and the “production amount of insulin” value (porcine pancreatic islet; porcine islets, day 3 of culture, low glucose (after), 6 hours) was 0.90 µg/L. The “production amount of insulin” value (porcine pancreatic islet; porcine islets, day 5 of culture, high glucose (450 g/l, 6 hours)) was 1.24 µg/L, the “production amount of insulin” value (porcine pancreatic islet; porcine islets, day 5 of culture, low glucose (100 g/l, 24 hours)) was 0.69 µg/L and the “production amount of insulin” value (porcine pancreatic islet; porcine islets, day 5 of culture, low glucose (after), 6 hours) was 0.78 µg/L. For the same molecule, the “production amount of insulin” value (porcine pancreatic islet; porcine islets, day 7 of culture, high glucose (450 g/l, 6 hours)) was 0.90 µg/L, the “production amount of insulin” value (porcine pancreatic islet; porcine islets, day 7 of culture, low glucose (100 g/l, 24 hours)) was 0.49 µg/L and the “production amount of insulin” value (porcine pancreatic islet; porcine islets, day 7 of culture, low glucose (after), 6 hours) was 0.71 µg/L. For the same molecule, the “amount of insulin secreted in high glucose concentration (response to glucose concentration)” value (porcine pancreatic islet; porcine pancreatic islet, day 5 of culture) was “increased”, the “viability of porcine hepatocytes (live cells green, dead cells red)” value (porcine hepatocyte) was “most cells exhibited a green color” and the “production amount of insulin” value (human pancreatic islet; human islets (10 seeded), day 1 of culture, low glucose (100 g/l, 24 hours)) was 0.60 µg/L. For the same molecule, the “production amount of insulin” value (human pancreatic islet; human islets, day 1 of culture, high glucose (450 g/l, 6 hours)) was 1.89 µg/L, the “production amount of insulin” value (human pancreatic islet; human islets, day 1 of culture, low glucose (after), 6 hours) was 1.13 µg/L and the “production amount of insulin” value (human pancreatic islet; human islets, day 3 of culture, high glucose (450 g/l, 6 hours)) was 1.68 µg/L. For the same molecule, the “production amount of insulin” value (human pancreatic islet; human islets, day 3 of culture, low glucose (100 g/l, 24 hours)) was 0.58 µg/L, the “production amount of insulin” value (human pancreatic islet; human islets, day 3 of culture, low glucose (after), 6 hours) was 1.11 µg/L and the “production amount of insulin” value (human pancreatic islet; human islets, day 5 of culture, high glucose (450 g/l, 6 hours)) was 1.43 µg/L. The “production amount of insulin” value (human pancreatic islet; human islets, day 5 of culture, low glucose (100 g/l, 24 hours)) was 0.51 µg/L, the “production amount of insulin” value (human pancreatic islet; human islets, day 5 of culture, low glucose (after), 6 hours) was 1.10 µg/L and the “production amount of insulin” value (human pancreatic islet; human islets, day 7 of culture, high glucose (450 g/l, 6 hours)) was 0.76 µg/L. For the same molecule, the “production amount of insulin” value (human pancreatic islet; human islets, day 7 of culture, low glucose (100 g/l, 24 hours)) was 0.41 µg/L, the “production amount of insulin” value (human pancreatic islet; human islets, day 7 of culture, low glucose (after), 6 hours) was 0.54 µg/L and the “amount of insulin secreted in high glucose concentration (response to glucose concentration)” value (human pancreatic islet; human pancreatic islet, day 7 of culture) was “increased”. It also gave an ammonia metabolic rate (human hepatocyte; Table 4(a), day 1 of culture) of 45.0, an ammonia metabolic rate (human hepatocyte; Table 4(a), day 3 of culture) of 32.8 and an ammonia metabolic rate (human hepatocyte; Table 4(a), day 5 of culture) of 20.4. The ammonia metabolic rate (human hepatocyte; Table 4(b), day 1 of culture) was 45.0, the ammonia metabolic rate (human hepatocyte; Table 4(b), day 3 of culture) was 32.8 and the ammonia metabolic rate (human hepatocyte; Table 4(b), day 5 of culture) was 20.4. The “ammonia metabolic rate as compared with collagen type I (monolayer) (group B)” value (human hepatocyte; days 1, 3 and 5) was “significantly better” and the “ammonia metabolic rate as compared with collagen type I (monolayer) (group B) and Matrigel (group C)” value (human hepatocyte; days 1, 3 and 5) was “significantly better”.
